Assay results reported in PubChem BioAssay AID1919017 (Molecular Pharmacology Branch, DTP, NCI, 2023).

Test system: SW1271 complex spheroids with HUVEC/MSC, growth, % test/control
Test: Anticancer human tumor SW1271 cell line growth inhibition [AhR];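 further: spheroids exposed to agents for 7 days before readout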
Conditions: for IC50: curve of first compound; for viability, T/C: stronger effect = lower value
Method in brief: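 Agents were dosed in half-log steps down from roughly clinical Cmax, or from 10 microM where Cmax was unknown, alone and with AhR antagonists. Read-out: percent test/control growth of tumor spheroids containing HUVEC and MSC stromal cells.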

[1] = second compound 0.1 µM, first compound 0.0316 µM
[2] = second compound 0.1 µM, first compound 0.1 µM
[3] = second compound 0.1 µM, first compound 0.316 µM
[4] = second compound 0.1 µM, first compound 1 µM
[5] = second compound 0.1 µM, first compound 3.16 µM
[6] = second compound 0.1 µM, first compound 10 µM
[7] = second compound 0.316 µM, first compound 0.0316 µM
[8] = second compound 0.316 µM, first compound 0.1 µM
[9] = second compound 0.316 µM, first compound 0.316 µM
[10] = second compound 0.316 µM, first compound 1 µM
[11] = second compound 0.316 µM, first compound 3.16 µM
[12] = second compound 0.316 µM, first compound 10 µM
[13] = second compound 1 µM, first compound 0.0316 µM
[14] = second compound 1 µM, first compound 0.1 µM
[15] = second compound 1 µM, first compound 0.316 µM
[16] = second compound 1 µM, first compound 1 µM
[17] = second compound 1 µM, first compound 3.16 µM
[18] = second compound 1 µM, first compound 10 µM
[19] = second compound 3.16 µM, first compound 0.0316 µM
[20] = second compound 3.16 µM, first compound 0.1 µM
[21] = second compound 3.16 µM, first compound 0.316 µM
[22] = second compound 3.16 µM, first compound 1 µM
[23] = second compound 3.16 µM, first compound 3.16 µM
[24] = second compound 3.16 µM, first compound 10 µM
[25] = second compound 10 µM, first compound 0.0316 µM
[26] = second compound 10 µM, first compound 0.1 µM
[27] = second compound 10 µM, first compound 0.316 µM
[28] = second compound 10 µM, first compound 1 µM
[29] = second compound 10 µM, first compound 3.16 µM
[30] = second compound 10 µM, first compound 10 µM
[31] = second compound 0.1 µM, first compound 0.00316 µM
[32] = second compound 0.1 µM, first compound 0.01 µM
[33] = second compound 0.316 µM, first compound 0.00316 µM
[34] = second compound 0.316 µM, first compound 0.01 µM
[35] = second compound 1 µM, first compound 0.00316 µM
[36] = second compound 1 µM, first compound 0.01 µM
[37] = second compound 3.16 µM, first compound 0.00316 µM
[38] = second compound 3.16 µM, first compound 0.01 µM
[39] = second compound 10 µM, first compound 0.00316 µM
[40] = second compound 10 µM, first compound 0.01 µM

CC(C)c1c(-c2ccccc2)nc2c(C#N)c[nH]n2c1=O + CC(CO)NC(=O)c1cc(-c2ccc(Cl)cc2)nn(-c2cnn(C)c2)c1=O
IC50 (second compound 0.1 µM): > 10000 nM | IC50 (second compound 0.316 µM): > 10000 nM | IC50 (second compound 1 µM): > 10000 nM | IC50 (second compound 3.16 µM): > 10000 nM | IC50 (second compound 10 µM): > 10000 nM | viability, T/C [1]: 88.4% | viability, T/C [2]: 101% | viability, T/C [3]: 106% | viability, T/C [4]: 90.9% | viability, T/C [5]: 95.7% | viability, T/C [6]: 121% | viability, T/C [7]: 88.7% | viability, T/C [8]: 85.3% | viability, T/C [9]: 91.4% | viability, T/C [10]: 98.1% | viability, T/C [11]: 93.8% | viability, T/C [12]: 108% | viability, T/C [13]: 78.7% | viability, T/C [14]: 89.9% | viability, T/C [15]: 86.4% | viability, T/C [16]: 78.7% | viability, T/C [17]: 107% | viability, T/C [18]: 94.8% | viability, T/C [19]: 95.7% | viability, T/C [20]: 97.8% | viability, T/C [21]: 80.1% | viability, T/C [22]: 78% | viability, T/C [23]: 82.8% | viability, T/C [24]: 76.8% | viability, T/C [25]: 71.8% | viability, T/C [26]: 80.8% | viability, T/C [27]: 67.8% | viability, T/C [28]: 71.3% | viability, T/C [29]: 62.9% | viability, T/C [30]: 77.8%

COc1ccc([C@@H](O)c2cc(-c3ncnc4cc(N5CCOCC5)ccc34)c(F)cc2Cl)nn1 + CC(CO)NC(=O)c1cc(-c2ccc(Cl)cc2)nn(-c2cnn(C)c2)c1=O
IC50 (second compound 0.1 µM): 2690 nM | IC50 (second compound 0.316 µM): 1900 nM | IC50 (second compound 1 µM): 1410 nM | IC50 (second compound 3.16 µM): 1480 nM | IC50 (second compound 10 µM): 931 nM | viability, T/C [1]: 83.9% | viability, T/C [2]: 96.4% | viability, T/C [3]: 90.9% | viability, T/C [4]: 66.5% | viability, T/C [5]: 49.6% | viability, T/C [6]: 28% | viability, T/C [7]: 101% | viability, T/C [8]: 91.4% | viability, T/C [9]: 77.3% | viability, T/C [10]: 58.6% | viability, T/C [11]: 43.1% | viability, T/C [12]: 33.2% | viability, T/C [13]: 103% | viability, T/C [14]: 108% | viability, T/C [15]: 78.6% | viability, T/C [16]: 55.8% | viability, T/C [17]: 40.6% | viability, T/C [18]: 29.6% | viability, T/C [19]: 92.2% | viability, T/C [20]: 80.4% | viability, T/C [21]: 68.3% | viability, T/C [22]: 56.3% | viability, T/C [23]: 39.2% | viability, T/C [24]: 36.5% | viability, T/C [25]: 84% | viability, T/C [26]: 76.9% | viability, T/C [27]: 59.8% | viability, T/C [28]: 50.3% | viability, T/C [29]: 38% | viability, T/C [30]: 29.1%

CC[C@@]1(O)C(=O)OCc2c1cc1n(c2=O)Cc2cc3c(CN(C)C)c(O)ccc3nc2-1 + Cc1ccccc1N=Nc1ccc(NC(=O)c2ccnn2C)c(C)c1
IC50 (second compound 0.1 µM): > 100 nM | IC50 (second compound 0.316 µM): > 100 nM | IC50 (second compound 1 µM): > 100 nM | IC50 (second compound 3.16 µM): > 100 nM | IC50 (second compound 10 µM): > 100 nM | viability, T/C (second compound 0.1 µM, first compound 0.000316 µM): 81.8% | viability, T/C (second compound 0.1 µM, first compound 0.001 µM): 98.9% | viability, T/C [31]: 69.4% | viability, T/C [32]: 67.8% | viability, T/C [1]: 57.5% | viability, T/C [2]: 53.1% | viability, T/C (second compound 0.316 µM, first compound 0.000316 µM): 89.4% | viability, T/C (second compound 0.316 µM, first compound 0.001 µM): 92% | viability, T/C [33]: 79.9% | viability, T/C [34]: 65.8% | viability, T/C [7]: 69.2% | viability, T/C [8]: 63.9% | viability, T/C (second compound 1 µM, first compound 0.000316 µM): 77.9% | viability, T/C (second compound 1 µM, first compound 0.001 µM): 83.4% | viability, T/C [35]: 88% | viability, T/C [36]: 80% | viability, T/C [13]: 63.8% | viability, T/C [14]: 57.3% | viability, T/C (second compound 3.16 µM, first compound 0.000316 µM): 84.5% | viability, T/C (second compound 3.16 µM, first compound 0.001 µM): 86.4% | viability, T/C [37]: 88.7% | viability, T/C [38]: 68.2% | viability, T/C [19]: 78.2% | viability, T/C [20]: 67.4% | viability, T/C (second compound 10 µM, first compound 0.000316 µM): 86.7% | viability, T/C (second compound 10 µM, first compound 0.001 µM): 83% | viability, T/C [39]: 87.2% | viability, T/C [40]: 62.1% | viability, T/C [25]: 60.8% | viability, T/C [26]: 65.5%

COc1cc(C2c3cc4c(cc3C(OC3OC5COC(C)OC5C(O)C3O)C3COC(=O)C23)OCO4)cc(OC)c1O (stereo not given) + Cc1ccccc1N=Nc1ccc(NC(=O)c2ccnn2C)c(C)c1
IC50 (second compound 0.1 µM): 266 nM | IC50 (second compound 0.316 µM): 267 nM | IC50 (second compound 1 µM): 419 nM | IC50 (second compound 3.16 µM): 1580 nM | IC50 (second compound 10 µM): 1020 nM | viability, T/C [1]: 75.4% | viability, T/C [2]: 58.1% | viability, T/C [3]: 44.1% | viability, T/C [4]: 50.4% | viability, T/C [5]: 46.9% | viability, T/C [6]: 45.6% | viability, T/C [7]: 54.1% | viability, T/C [8]: 53.9% | viability, T/C [9]: 51.9% | viability, T/C [10]: 46.1% | viability, T/C [11]: 40.4% | viability, T/C [12]: 44.7% | viability, T/C [13]: 88.8% | viability, T/C [14]: 67.5% | viability, T/C [15]: 49.6% | viability, T/C [16]: 44.1% | viability, T/C [17]: 47.4% | viability, T/C [18]: 35.3% | viability, T/C [19]: 66.8% | viability, T/C [20]: 80.4% | viability, T/C [21]: 53.1% | viability, T/C [22]: 49.4% | viability, T/C [23]: 51.2% | viability, T/C [24]: 34% | viability, T/C [25]: 62% | viability, T/C [26]: 61.7% | viability, T/C [27]: 54% | viability, T/C [28]: 50.2% | viability, T/C [29]: 43.8% | viability, T/C [30]: 37.2%

COc1cccc2c1C(=O)c1c(O)c3c(c(O)c1C2=O)CC(O)(C(=O)CO)CC3OC1CC(N)C(O)C(C)O1 (stereo not given) + Cc1ccccc1N=Nc1ccc(NC(=O)c2ccnn2C)c(C)c1
IC50 (second compound 0.1 µM): < 31.6 nM | IC50 (second compound 0.316 µM): < 31.6 nM | IC50 (second compound 1 µM): 152 nM | IC50 (second compound 3.16 µM): 115 nM | IC50 (second compound 10 µM): 128 nM | viability, T/C [1]: 39.7% | viability, T/C [2]: 52.7% | viability, T/C [3]: 32.5% | viability, T/C [4]: 3% | viability, T/C [5]: 3.18% | viability, T/C [6]: 2.71% | viability, T/C [7]: 52.6% | viability, T/C [8]: 45.9% | viability, T/C [9]: 34.7% | viability, T/C [10]: 2.92% | viability, T/C [11]: 2.63% | viability, T/C [12]: 3.51% | viability, T/C [13]: 56.4% | viability, T/C [14]: 58.8% | viability, T/C [15]: 36.6% | viability, T/C [16]: 3.45% | viability, T/C [17]: 3.18% | viability, T/C [18]: 4.18% | viability, T/C [19]: 54.6% | viability, T/C [20]: 49.7% | viability, T/C [21]: 34.9% | viability, T/C [22]: 2.56% | viability, T/C [23]: 3.52% | viability, T/C [24]: 3.41% | viability, T/C [25]: 57.6% | viability, T/C [26]: 50.4% | viability, T/C [27]: 35.4% | viability, T/C [28]: 1.26% | viability, T/C [29]: 3.22% | viability, T/C [30]: 3.53%

Nc1ncn(C2CC(O)C(CO)O2)c(=O)n1 (stereo not given) + Cc1ccccc1N=Nc1ccc(NC(=O)c2ccnn2C)c(C)c1
IC50 (second compound 0.1 µM): > 1000 nM | IC50 (second compound 0.316 µM): > 1000 nM | IC50 (second compound 1 µM): > 1000 nM | IC50 (second compound 3.16 µM): > 1000 nM | IC50 (second compound 10 µM): > 1000 nM | viability, T/C [31]: 81.5% | viability, T/C [32]: 86.8% | viability, T/C [1]: 64.3% | viability, T/C [2]: 60.1% | viability, T/C [3]: 63% | viability, T/C [4]: 49.4% | viability, T/C [33]: 82.2% | viability, T/C [34]: 66.9% | viability, T/C [7]: 69% | viability, T/C [8]: 76.1% | viability, T/C [9]: 72% | viability, T/C [10]: 59.6% | viability, T/C [35]: 79.8% | viability, T/C [36]: 71.3% | viability, T/C [13]: 72.7% | viability, T/C [14]: 62.9% | viability, T/C [15]: 75.4% | viability, T/C [16]: 60.2% | viability, T/C [37]: 72.7% | viability, T/C [38]: 83.2% | viability, T/C [19]: 79.9% | viability, T/C [20]: 63.7% | viability, T/C [21]: 64.1% | viability, T/C [22]: 59% | viability, T/C [39]: 76.1% | viability, T/C [40]: 65.5% | viability, T/C [25]: 66.1% | viability, T/C [26]: 71.5% | viability, T/C [27]: 65% | viability, T/C [28]: 69.9%
